Results as given in ChEMBL document CHEMBL1149744, “Terpenoids and Alkaloids from Esenbeckia belizencis. Spontaneous Oxidation of Furoquinoline Alkaloids” (J Nat Prod, 1992).

Test system: Artemia salina
Assay: Toxicity against Artemia salina
Assay type: organism-based
Conditions: in vivo

Row | SMILES | LC50 [ppm]
1 | COc1c2ccoc2nc2c(OC)c3c(cc12)OCO3 [FLINDERSIAMINE] | > 1000
2 | COc1cc2nc3occc3c(OC)c2cc1OC [KOKUSAGININE] | 367
